Experimental data published in patent US10772886B2, “CXCR-2 inhibitors for treating crystal arthropathy disorders” (ARDEA BIOSCIENCES, INC., priority 2016, dated 2020).

Assays:
[1] = test system: rat air pouch model of crystal-induced arthropathy (MSU); experiment: Rat air pouch model, Example 5 (Compound 2 in combination with colchicine); type: in vivo
Protocol: Sodium hydroxide (40 g, Fisher Scientific) was dissolved in de-ionized water (100 mL, dH2O) to provide a 10N solution. Uric acid (16 g, Sigma) was added to de-ionized water (3400 mL) containing sodium hydroxide solution (11.8 mL, 10N) and heated to 60° C. with constant stirring. […] The resulting clear solution was cooled to 4-8° C., resulting in the formation of crystals, which were isolated by filtration, washed three times with de-ionized wa[…]) and dried at 37° C. The dried mono sodium urate crystals were sifted into an air-tight container for storage. […] Methylcellulose (0.4 g, Sigma) was dissolved in de-ionized water (100 mL) to provide a 0.4% solution used as vehicle. […] Test compounds were suspended in vehicle to provide the desired concentrations, and diluted accordingly. […] Male Sprague-Dawley rats (Charles River Laboratories, 160-180 g) were received, individually examined and housed in cages of five rats each. The animals were in apparent good health with no clinical signs of disease or distress. The rats were placed in quarantine with daily inspections, ear notched for identification purposes and shaved at the nape of the neck. The rats were anesthetized (isoflurane), and the nape of the neck was cleansed with 70% isopropanol (Butler Animal Health Supply) followed by povidone-iodine solution (Ricca Chemical Co.). Sterile air (30 mL, 0.2 μm, Millipore) was injected subcutaneously using a 23 G×11⁄2 inch needle fixed to a 30 mL syringe. The rats were returned to routine housing with no adverse reactions observed. The rats were anesthetized (isoflurane), and the nape of the neck was cleansed with 70% isopropanol (Butler Animal Health Supply) followed by povidone-iodine solution (Ricca Chemical Co.). Sterile air (15 mL, 0.11 μm, Millipore) was injected subcutaneously using a 23 G×11⁄2 inch needle fixed to a 20 mL syringe. The rats were returned to routine housing with no adverse reactions observed. The rats were weighed and sorted into treatment groups based on average body weight. As appropriate, the rats were dosed orally with test compound or vehicle (saline alone). […] Thirty minutes after SC injection or two hours after PO dosing, MSU (15 mL) was injected into the air pouch using an 18 G×2 inch needle fitted to a 20 mL syringe. Control group was injected with 15 mL sterile saline (vehicle). The injection sites were closed (collodion, Macron) and the rats returned to their cages with no adverse effects observed. Four hours after MSU/saline injection, the rats were anesthetized and heparinized saline (5 mL, 10 U/mL) was injected into the air pouch. […] An aliquot of the exudate was transferred to green Eppendorf tubes for total white blood cell (WBC) measurement. After allowing the MSU crystals to settle out for ten minutes, an aliquot of the exudate was transferred to heparinized microtainer tubes (Becton Dickinson) for differential white blood cell counts. The remainder of the exudate was centrifuged and an aliquot of the supernatants was dispensed to labeled clear Eppendorf tubes and stored at -80° C. The rats were exsanguinated into pre-chilled serum separator tubes, processed to serum, and 0.5 mL aliquot was stored at -80° C. in labeled Eppendorf tubes. […] 90 rats were used, divided into 9 groups of 10 animals, as follows: [table]

CXCR-2 = target: T1, CXCR-2 (Homo sapiens, UniProt P25025); details: cited from earlier work
T1 sequence (P25025 1-360): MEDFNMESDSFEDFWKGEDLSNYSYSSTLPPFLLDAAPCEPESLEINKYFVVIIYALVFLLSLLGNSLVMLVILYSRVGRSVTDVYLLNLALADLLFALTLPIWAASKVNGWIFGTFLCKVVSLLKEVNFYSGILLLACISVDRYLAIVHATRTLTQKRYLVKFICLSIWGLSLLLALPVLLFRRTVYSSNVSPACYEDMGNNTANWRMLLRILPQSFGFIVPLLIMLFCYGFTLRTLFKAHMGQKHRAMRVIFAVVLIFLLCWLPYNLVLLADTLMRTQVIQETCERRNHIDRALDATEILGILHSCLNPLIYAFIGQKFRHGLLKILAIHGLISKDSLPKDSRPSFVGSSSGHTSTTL

[2] = 0.3 umol/kg PO + Colchicine 0.001 mpk SC, Group 6
[3] = 0.3 umol/kg PO + Colchicine 0.1 mpk SC, Group 8
[4] = 3.0 umol/kg PO + Colchicine 0.001 mpk SC, Group 7
[5] = 3.0 umol/kg PO + Colchicine 0.1 mpk SC, Group 9

## COc1cc2c(c(OC)c1OC)-c1ccc(OC)c(=O)cc1[C@@H](NC(C)=O)CC2 [Colchicine, COLCHICINE, reference compound]
[1]; 0.1 mpk (PO), Group 3
  Avg Exudate Vol: 9.7 mL
  Avg Total WBC: 221 ×10^6
  Neutrophils: 163 ×10^6

## CC[C@@H](Nc1c(Nc2cccc(C(=O)N(C)C)c2O)c(=O)c1=O)c1ccc(C)o1 [Compound 2, (R)-2-hydroxy-N,N-dimethyl-3-((2-((1-(5-methylfuran-2-yl)propyl)amino)-3,4-dioxocyclobut-1-en-1-yl)amino)benzamide]
[1]; [2]
  Avg Exudate Vol: 9.6 mL
  Avg Total WBC: 337 ×10^6
  Neutrophils: 246 ×10^6
[1]; [3]
  Avg Exudate Vol: 7.9 mL
  Avg Total WBC: 153 ×10^6
  Neutrophils: 123 ×10^6
[1]; 0.3 umol/kg PO, Group 4
  Avg Exudate Vol: 9.8 mL
  Avg Total WBC: 365 ×10^6
  Neutrophils: 268 ×10^6
[1]; [4]
  Avg Exudate Vol: 8 mL
  Avg Total WBC: 88 ×10^6
  Neutrophils: 26.7 ×10^6
[1]; [5]
  Avg Exudate Vol: 7.5 mL
  Avg Total WBC: 76.8 ×10^6
  Neutrophils: 27.2 ×10^6
[1]; 3.0 umol/kg PO, Group 5
  Avg Exudate Vol: 7.0 mL
  Avg Total WBC: 78.6 ×10^6
  Neutrophils: 16 ×10^6
CXCR-2
  inhibit CXCR-2: shown to inhibit CXCR-2

## C[C@@H](Oc1cc(NS(=O)(=O)N2CCC2)nc(SCc2cccc(F)c2F)n1)[C@@H](O)CO [Compound 3, N-(2-((2,3-difluorobenzyl)thio)-6-(((2R,3S)-3,4-dihydroxybutan-2-yl)oxy)pyrimidin-4-yl)azetidine-1-sulfonamide]
CXCR-2
  inhibit CXCR-2: shown to inhibit CXCR-2

## CC1CN(S(=O)(=O)Nc2cc(O[C@H](C)[C@@H](O)CO)nc(SCc3ccc(F)cc3)n2)C1 [Compound 4, N-(6-(((2R,3S)-3,4-dihydroxybutan-2-yl)oxy)-2-((4-fluorobenzyl)thio)pyrimidin-4-yl)-3-methylazetidine-1-sulfonamide]
CXCR-2
  inhibit CXCR-2: shown to inhibit CXCR-2
